Measurements published in patent publication US20180353483A1, “PHARMACEUTICAL COMPOSITIONS AND METHODS FOR INDOLEAMINE, 2, 3-DIOXYGENASE INHIBITION AND INDICATIONS THEREFOR” (Incyte Corporation, priority 2015, published 2018).
“Also recorded” adds a separate entry of the source. Where two headings read alike, the source gives them in different places.

Experiment: Dose-escalation study of Compound 1 pharmacokinetics in subjects with advanced malignancies (tablets of Formulations 1 and/or 3, fasted; food effect cohort)
Type: in vivo, human
Details: for AUC: read-out: AUC0-τ
Description: Thus, Cmax, Cmin and Tmax were taken directly from the observed plasma concentration data or imputed in some cases. The terminal-phase disposition rate constant (λz) was estimated using a log-linear regression of the concentration data in the terminal disposition phase, and t1/2 was estimated as ln(2)/λz. AUC0-t and AUC0-τ was estimated using the linear trapezoidal rule for increasing concentrations and the log-trapezoidal rule for decreasing concentrations. At the PK steady-state, the apparent oral-dose clearance, CL/F, was estimated as Dose/AUC0-τ, and Vz/F was estimated as Dose/[AUC0-τ*λz].
The log-transformed pharmacokinetic parameters were compared among the BID dose groups using a 1-factor ANOVA with the factor for dose. Dose-dependent exposure parameters (Cmax and AUC) were normalized to a common dose before statistical comparisons were made.
The oral bioavailability (F) and systemic clearance (CL) were estimated. […] This method of estimation assumes near complete oral absorption and the liver being the primary organ for drug clearance. […] The above equation was modified to incorporate the term of Fa to accommodate an incomplete absorption: CL=(QH*Fa*CL/F)/(QH+Fa*CL/F).

[1] = 700 mg BID, steady state, mean ± SD
[2] = BID doses 50 to 700 mg, steady state
[3] = human, plasma, oral, 50 mg, 50 mg QD, steady state, geometric mean
[4] = human, plasma, oral, 100 mg, 100 mg BID, steady state, geometric mean
[5] = human, plasma, oral, 300 mg, 300 mg BID, steady state, geometric mean
[6] = human, plasma, oral, 400 mg, 400 mg BID, steady state, geometric mean
[7] = human, plasma, oral, 500 mg, 500 mg BID, steady state, geometric mean
[8] = human, plasma, oral, 600 mg, 600 mg BID, steady state, geometric mean
[9] = human, plasma, oral, 700 mg, 700 mg BID, steady state, geometric mean

NS(=O)(=O)NCCNc1nonc1C(=NO)Nc1ccc(F)c(Br)c1 [Compound 1, 4-({2-[(aminosulfonyl)amino]ethyl}amino)-N-(3-bromo-4-fluorophenyl)-N′-hydroxy-1,2,5-oxadiazole-3-carboximidamide]
Cmin (700 mg BID, steady state, geometric mean): 1.26 µM
AUC0-τ [1]: 35.8 ± 15.5 µM·h
CL/F [1]: 49.5 ± 17.1 L/h
Cmax [1]: 6.23 ± 2.09 µM
Cmin [1]: 1.32 ± 0.417 µM
dose proportionality of exposures (Cmax and AUC) (50 to 700 mg BID): slightly less than proportional to dose; also recorded: less than proportional to dose
exponent β of power-function regression, AUC0-12h vs Dose [2]: 0.843
exponent β of power-function regression, Cmax vs Dose [2]: 0.779
increase of mean AUC0-τ by systemic accumulation (BID dosing): 33%
increase of mean Cmax by systemic accumulation (BID dosing): 16%
oral-dose clearance CL/F (geometric mean, pooled 42 subjects, Cycle 1 Day 15): 55.3 L/h
systemic clearance in percent hepatic blood flow (human, estimated): 29%
fraction of oral dose absorbed (Fa) (human, estimated as mean of cynomolgus monkey and beagle dog): 64%
AUC(0-t) (human, plasma, oral, 50 mg, 50 mg BID, steady state, geometric mean, read-out: AUC0-t): 2.58 µM·h
AUC (human, plasma, oral, 50 mg, 50 mg BID, steady state, geometric mean): 2.83 µM·h
half-life (human, plasma, oral, 50 mg, 50 mg BID, steady state, geometric mean, read-out: t1/2 (converted)): 2.3 h
AUC(0-t) (human, plasma, oral, 50 mg, 50 mg BID, steady state, mean ± SD, read-out: AUC0-t): 2.74 ± 1.08 µM·h
Cmax [3]: 0.365 µM
AUC(0-t) (human, plasma, oral, 50 mg, 50 mg QD, steady state, geometric mean, read-out: AUC0-t): 1.37 µM·h
AUC [3]: 1.56 µM·h
half-life (human, plasma, oral, 50 mg, 50 mg QD, steady state, geometric mean, read-out: t1/2 (converted)): 2.4 h
Cmax [4]: 1.19 µM
AUC(0-t) (human, plasma, oral, 100 mg, 100 mg BID, steady state, geometric mean, read-out: AUC0-t): 4.97 µM·h
AUC [4]: 5.38 µM·h
half-life (human, plasma, oral, 100 mg, 100 mg BID, steady state, geometric mean, read-out: t1/2 (converted)): 3.2 h
AUC(0-t) (human, plasma, oral, 100 mg, 100 mg BID, steady state, mean ± SD, read-out: AUC0-t): 5.32 ± 2.16 µM·h
Cmax [5]: 2.44 µM
AUC(0-t) (human, plasma, oral, 300 mg, 300 mg BID, steady state, geometric mean, read-out: AUC0-t): 8.88 µM·h
AUC [5]: 9.75 µM·h
AUC(0-t) (human, plasma, oral, 300 mg, 300 mg BID, steady state, mean ± SD, read-out: AUC0-t): 8.92 ± 0.841 µM·h
Cmax [6]: 3.88 µM
AUC(0-t) (human, plasma, oral, 400 mg, 400 mg BID, steady state, geometric mean, read-out: AUC0-t): 15 µM·h
AUC [6]: 17.6 µM·h
half-life (human, plasma, oral, 400 mg, 400 mg BID, steady state, geometric mean, read-out: t1/2 (converted)): 2.6 h
AUC(0-t) (human, plasma, oral, 400 mg, 400 mg BID, steady state, mean ± SD, read-out: AUC0-t): 16.7 ± 6.79 µM·h
Cmax [7]: 4.48 µM
AUC(0-t) (human, plasma, oral, 500 mg, 500 mg BID, steady state, geometric mean, read-out: AUC0-t): 17.3 µM·h
AUC [7]: 19.7 µM·h
half-life (human, plasma, oral, 500 mg, 500 mg BID, steady state, geometric mean, read-out: t1/2 (converted)): 2.4 h
AUC(0-t) (human, plasma, oral, 500 mg, 500 mg BID, steady state, mean ± SD, read-out: AUC0-t): 18.2 ± 6.46 µM·h
Cmax (human, plasma, oral, 600 mg, 600 mg BID, Fed (high-fat meal), geometric mean): 4.03 µM
AUC(0-t) (human, plasma, oral, 600 mg, 600 mg BID, Fed (high-fat meal), geometric mean, read-out: AUC0-12 h): 25.8 µM·h
Cmax (human, plasma, oral, 600 mg, 600 mg BID, Fed (high-fat meal), mean ± SD): 4.53 ± 2.52 µM
AUC(0-t) (human, plasma, oral, 600 mg, 600 mg BID, Fed (high-fat meal), mean ± SD, read-out: AUC0-12 h): 29.5 ± 18.2 µM·h
tmax (human, plasma, oral, 600 mg, 600 mg BID, Fed (high-fat meal), median, read-out: Tmax): 6 h
Cmax (human, plasma, oral, 600 mg, 600 mg BID, food effect cohort, Fasted, geometric mean): 4.52 µM
AUC(0-t) (human, plasma, oral, 600 mg, 600 mg BID, food effect cohort, Fasted, geometric mean, read-out: AUC0-12 h): 21.6 µM·h
Cmax (human, plasma, oral, 600 mg, 600 mg BID, food effect cohort, Fasted, mean ± SD): 4.82 ± 2.16 µM
AUC(0-t) (human, plasma, oral, 600 mg, 600 mg BID, food effect cohort, Fasted, mean ± SD, read-out: AUC0-12 h): 22.9 ± 9.99 µM·h
Cmax [8]: 4.52 µM
AUC(0-t) (human, plasma, oral, 600 mg, 600 mg BID, steady state, geometric mean, read-out: AUC0-t): 18.3 µM·h
AUC [8]: 21.6 µM·h
half-life (human, plasma, oral, 600 mg, 600 mg BID, steady state, geometric mean, read-out: t1/2 (converted)): 3.2 h
AUC(0-t) (human, plasma, oral, 600 mg, 600 mg BID, steady state, mean ± SD, read-out: AUC0-t): 19.5 ± 8.4 µM·h
tmax (human, plasma, oral, 600 mg, 600 mg BID, steady state, read-out: prolongation of Tmax by a high-fat meal): 4 h
Cmax [9]: 6 µM
AUC(0-t) (human, plasma, oral, 700 mg, 700 mg BID, steady state, geometric mean, read-out: AUC0-t): 29.6 µM·h
AUC [9]: 33.9 µM·h
half-life (human, plasma, oral, 700 mg, 700 mg BID, steady state, geometric mean, read-out: t1/2 (converted)): 2.9 h
AUC(0-t) (human, plasma, oral, 700 mg, 700 mg BID, steady state, mean ± SD, read-out: AUC0-t): 30.8 ± 10.5 µM·h
half-life (human, plasma, oral, from accumulation ratio based on AUC, read-out: effective t1/2 (converted)): ~6 h
clearance (human, plasma, oral, read-out: mean systemic clearance CL (converted)): 417 mL/min
bioavailability (plasma, oral, human, estimated, CL/CLoral, read-out: mean absolute bioavailability (F)): 45%
systemic accumulation (repeat 50 mg QD administration): no evidence of systemic accumulation
day on which steady-state of PK was observed (repeat BID dosing, judged by trough plasma concentrations): ≤ 8 days
effective half-life (suggested by accumulation of Cmax and AUC0-τ, BID dosing): 4 to 6 h
